This note sets out measurements from PMC2579264 (European journal of pharmacology, 2008).

Changes are numbered by the printed parent chain.

The target of data set [1] is T1, human neuropeptide Y Y2 receptor, wildtype (P^34D^35) (Homo sapiens, UniProt P49146).
T1 sequence (P49146 1-381): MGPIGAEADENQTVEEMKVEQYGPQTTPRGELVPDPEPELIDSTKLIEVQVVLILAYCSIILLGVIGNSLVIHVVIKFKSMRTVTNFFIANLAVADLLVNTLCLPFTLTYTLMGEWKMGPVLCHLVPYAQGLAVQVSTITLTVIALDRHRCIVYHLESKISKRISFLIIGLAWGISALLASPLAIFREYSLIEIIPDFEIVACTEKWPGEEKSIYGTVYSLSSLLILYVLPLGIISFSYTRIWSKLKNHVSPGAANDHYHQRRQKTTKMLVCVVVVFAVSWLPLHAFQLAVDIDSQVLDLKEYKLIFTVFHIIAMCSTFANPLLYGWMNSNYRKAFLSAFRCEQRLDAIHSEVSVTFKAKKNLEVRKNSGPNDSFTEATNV
In words: Receptor-linked internalization of agonist, wildtype Y2 receptor. In kind it is cell-based. The settings on record: heparin 5 µM, n = 12.

The target in data set [2] is T2, human neuropeptide Y Y2 receptor, A^34A^35 (Homo sapiens, UniProt P49146, D35A/P34A).
T2 sequence (P49146 1-381 P34A/D35A): T1 sequence (P49146 1-381) with P34A, D35A
As to the kind of experiment: Receptor-linked internalization of agonist, A^34A^35 mutant. It counts as cell-based. To be noted: heparin 5 µM, n = 12.

Data set [3] deals with neuropeptide Y Y2 receptor. As to the kind of experiment: Effect of heparin on binding of peptide YY. Details: species or system human. To be noted: heparin up to 30 µM; cell surface or particulate Y2 receptors.
Data set [4] deals with CHO cells expressing the A^34A^35 receptor. In words: Bio-Gel P-4 gel filtration of internalized agonist, A^34A^35 receptor. To be noted: 100 pM [^125I] peptide YY(3–36); detected by [^125I] label; 2 to 15 min.
Data set [5] has as its system Chinese hamster ovary (CHO) cells. In words: Loss of cell protein or detachment of cells after digitonin pretreatment. It counts as cell-based. To be noted: 10 µM digitonin pretreatment at 25 °C.
In data set [6] the test system is human neuropeptide Y Y2 receptor, wildtype. It counts as cell-based.
Data set [7] addresses T2, human neuropeptide Y Y2 receptor, A^34A^35. In words: Compartmentalization: unmasking / depletion of surface sites, A^34A^35 mutant. It counts as cell-based.

As to heparin, the “increase of internalization of 100 pM [^125I] peptide YY(3–36)” value was found to be 19.4 ± 2% in data set [1] (4 min), 4.8 ± 1.8% in data set [1] (10 min), 43.5 ± 3.5% in data set [2] (4 min) and 25.1 ± 5% in data set [2] (10 min). Further, in data set [3], the “effect on affinity and capacity of binding of peptide YY(3–36)” value is “did not affect the affinity and capacity of the binding”.

Turning to `N[C@@H](Cc1ccc(O)cc1)C(=O)O` [C-terminal tyrosine, tyrosine], in data set [4], the “accumulation of product of peptide YY processing in cells” value was “no accumulation”.

On to `C[C@@H]1CC[C@@]2(OC1)O[C@H]1[C@@H](O)[C@H]3[C@@H]4CC[C@H]5C[C@@H](O[C@@H]6O[C@H](CO)[C@H](O[C@@H]7O[C@H](CO)[C@@H](O)[C@H](O[C@@H]8OC[C@@H](O)[C@H](O)[C@H]8O)[C@H]7O[C@@H]7O[C@H](CO)[C@H](O)[C@H](O[C@@H]8O[C@H](CO)[C@@H](O)[C@H](O)[C@H]8O)[C@H]7O)[C@H](O)[C@H]6O)[C@H](O)C[C@]5(C)[C@H]4CC[C@]3(C)[C@H]1[C@@H]2C` [digitonin], for which the “loss of cell protein or detachment of cells” value in data set [5] was “did not result in a loss of cell protein or a detachment of cells”.

On to “pertussis toxin: pertussis toxin, used to deplete the compartmentalized surface Y2 sites”, for which, in data set [6], the “basal cell surface binding of [^125I] peptide YY(3–36) after pertussis toxin” value is “did not substantially reduce” and the “surface sites unmasked by the arsenical after pertussis toxin” value is recorded as “strongly reduced”. Moreover, in data set [7], the “basal cell surface binding of [^125I] peptide YY(3–36) after pertussis toxin” value is recorded as “did not substantially reduce” and the “surface sites unmasked by the arsenical after pertussis toxin” value is given as “almost eliminated”.
